Assay results from US20230014445A1, “ALLOSTERIC CHROMENONE INHIBITORS OF PHOSPHOINOSITIDE 3-KINASE (PI3K) FOR THE TREATMENT OF DISEASE” (Petra Pharma Corporation, priority 2021, published 2023).
Like-named read-outs stand apart in the source and are kept apart here.

Assays:
[1] = target: PI3K-α (PIK3CA) in MDA-MB-453 cells (Homo sapiens, UniProt P42336); test: PI3K-Alpha Kinase (PIK3CA) activity in vitro cell based assay (AlphaLisa SureFire)
Method: PI3K-Alpha Kinase (PIK3CA) Activity In Vitro Cell Based Assay and Determining IC50 Values for Inhibitors
The MDA-MB-453 (ATCC-HTB-131) cell line was obtained from the American Type Culture Collection (Manassas, Va.). Cells were maintained in Dulbecco's Modified Eagle Media (DMVEM, Gibco 11965-092) supplemented with 10% Fetal Bovine Serum, heat inactivated (FBS HI, Gibco 10082-147), 1× non-essential amino acids (NEAA, Gibco 11140-050), and 1 mM sodium pyruvate (Gibco 11360-070). Cultures were maintained in a humidified incubator at 37° C. under […].
For compound testing in 0% FBS, MDA-MB-453 cells were seeded at a density of 1.5×10^4 cells per well in white 384-well plates in 20 μl of Minimum Essential Media (MEM) assay media with 1×NEAA, 1 mM sodium pyruvate, and 1 μg/mL human insulin (Sigma I9278). Compounds dissolved in 10 mM stock solutions in DMSO were serially diluted 1:3 in DMSO to generate a 10-point dilution series and plated using an acoustic liquid handler system (Echo 550 Series Liquid Handler, Labcyte). A 5× intermediate compound dilution plate in MEM with 1×NEAA and 1 mM sodium pyruvate (150 μM starting compound concentration in 1.5% DMSO) was then prepared. Five μl of the intermediate serially diluted compounds were added to the cell plate to final concentrations ranging from […] in 0.3% DMSO. 0.3% DMSO alone was used to establish the maximum (MAX) signal and GDC-0032 at a final concentration of 1 μM was used as a reference compound for the minimum (MIN) signal. After 3 hours treatment, the medium was removed, and the cells lysed in 10 μL of 1× SureFire Lysis buffer with shaking for 10 minutes at room temperature. The Acceptor Mix (Reaction Buffer 1+Reaction Buffer 2+Activation Buffer+SureFire Ultra Acceptor Beads) was prepared by diluting Activation buffer 25-fold in combined Reaction Buffer 1 and Reaction Buffer 2. The Acceptor beads were diluted 50-fold in the combined Reaction Buffers. Five μL of Acceptor Mix was added to each well, the plate was sealed and covered with foil and incubated for 1 hour at room temperature. The Donor Mix (dilution buffer+SureFire Ultra Donor Beads) was prepared by diluting Donor Beads 50-fold in dilution buffer. Five μL of the Donor Mix was added to each well and the plate sealed and covered with foil and incubated for 1 hour at room temperature in the dark. The plates were read on a Neo2 plate reader instrument from Biotek using standard AlphaLisa settings.
Compounds were tested in duplicate and the average % inhibition at each compound concentration was used to generate a single dose response curve. The data were processed using the Genedata-Screener tool. Relative IC50 values were determined using luminescence units by calculating percent inhibition with respect to the in-plate “MIN” (GDC-0032 reference control) and “MAX” (DMSO) controls. The data was analyzed using a 4-parameter nonlinear logistic equation (four-parameter logistic concentration-response curve):
Y=bottom+[(top−bottom)/1+(X/IC50)slope]
where Y=% inhibition, X=concentration of inhibitor, bottom=minimum value of y attained by curve-fit, top=maximum value of y attained by curve-fit and slope=steepness of curve at the IC50.
% Inhibition=[(signal at X−median Min)/(median Max−median Min)]×100
IC50: concentration of compound that reduces a given response (ligand binding, enzyme response) by 50%. Relative IC50: concentration giving half the compound's maximum response.
For IC50 values shown in Table B, “A” means IC50<50 nM; “B” means IC50 ranging between 50 nM and 100 nM; “C” means IC50 ranging between 100 nM and 500 nM; “D” means IC50>500 nM.

[2] = target: T1, human full length PIK3KA H1047R mutant (p110α/p85α complex) (Homo sapiens, UniProt P42336, H1047R); test: PI3K-Alpha Kinase (PIK3CA) biochemical activity, H1047R mutant (ADP-Glo); details: 20 uM ATP
T1 construct: Recombinant, catalytically active human full length PIK3KA Wild-type and H1047R mutant were purchased; 6xHis (N); purchased EMD Millipore Sigma 14-792M
T1 sequence (P42336 whole entry H1047R): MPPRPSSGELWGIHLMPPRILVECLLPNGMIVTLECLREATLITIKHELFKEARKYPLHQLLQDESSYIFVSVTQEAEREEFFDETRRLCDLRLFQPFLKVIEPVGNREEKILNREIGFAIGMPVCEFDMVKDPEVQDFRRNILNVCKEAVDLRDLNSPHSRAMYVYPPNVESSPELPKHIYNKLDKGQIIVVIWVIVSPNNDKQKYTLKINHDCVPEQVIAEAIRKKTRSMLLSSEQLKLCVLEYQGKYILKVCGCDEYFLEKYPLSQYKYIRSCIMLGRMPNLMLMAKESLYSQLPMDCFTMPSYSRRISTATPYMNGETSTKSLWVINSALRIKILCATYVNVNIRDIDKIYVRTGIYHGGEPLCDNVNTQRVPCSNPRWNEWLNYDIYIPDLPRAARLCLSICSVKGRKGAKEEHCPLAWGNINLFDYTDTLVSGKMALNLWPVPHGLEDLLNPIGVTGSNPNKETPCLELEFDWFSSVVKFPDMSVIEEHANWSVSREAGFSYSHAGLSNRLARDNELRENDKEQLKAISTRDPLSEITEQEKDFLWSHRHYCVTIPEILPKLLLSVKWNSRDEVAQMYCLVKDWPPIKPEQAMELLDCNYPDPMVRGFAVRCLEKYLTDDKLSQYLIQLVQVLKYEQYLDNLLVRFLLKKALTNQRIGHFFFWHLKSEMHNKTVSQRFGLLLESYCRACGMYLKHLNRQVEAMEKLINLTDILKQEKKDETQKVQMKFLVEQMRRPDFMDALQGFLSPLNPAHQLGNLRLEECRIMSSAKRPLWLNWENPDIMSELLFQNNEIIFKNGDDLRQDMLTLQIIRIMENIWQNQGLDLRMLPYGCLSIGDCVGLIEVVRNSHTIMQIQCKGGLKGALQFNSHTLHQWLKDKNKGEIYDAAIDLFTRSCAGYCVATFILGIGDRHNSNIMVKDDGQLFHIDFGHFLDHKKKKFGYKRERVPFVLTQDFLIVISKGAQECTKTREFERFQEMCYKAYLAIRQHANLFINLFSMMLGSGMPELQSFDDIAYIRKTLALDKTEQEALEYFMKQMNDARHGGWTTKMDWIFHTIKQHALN
T1 sequence (P27986 whole entry partner): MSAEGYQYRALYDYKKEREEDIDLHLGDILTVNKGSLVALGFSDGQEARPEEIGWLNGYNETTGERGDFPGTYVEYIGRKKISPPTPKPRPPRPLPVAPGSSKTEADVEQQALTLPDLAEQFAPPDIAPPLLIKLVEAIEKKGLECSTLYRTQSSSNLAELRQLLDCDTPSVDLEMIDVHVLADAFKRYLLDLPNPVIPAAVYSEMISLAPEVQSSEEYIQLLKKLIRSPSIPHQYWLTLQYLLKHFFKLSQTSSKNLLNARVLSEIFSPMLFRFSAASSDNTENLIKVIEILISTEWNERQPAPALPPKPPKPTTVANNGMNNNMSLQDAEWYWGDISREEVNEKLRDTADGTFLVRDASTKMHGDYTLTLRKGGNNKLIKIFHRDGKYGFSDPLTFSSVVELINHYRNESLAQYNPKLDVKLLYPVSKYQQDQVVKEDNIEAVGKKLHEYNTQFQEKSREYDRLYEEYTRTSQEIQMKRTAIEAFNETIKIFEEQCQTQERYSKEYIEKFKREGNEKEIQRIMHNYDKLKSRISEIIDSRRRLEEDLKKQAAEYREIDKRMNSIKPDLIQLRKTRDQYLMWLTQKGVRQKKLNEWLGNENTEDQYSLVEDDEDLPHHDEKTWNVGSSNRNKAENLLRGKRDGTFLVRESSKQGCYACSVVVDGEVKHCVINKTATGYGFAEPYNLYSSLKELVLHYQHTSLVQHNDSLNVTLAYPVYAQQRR
Procedure, shortened: (§1)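 ADP formation, measured by ADP-Glo luminescence after reaction to about 10% ATP conversion at 27° C., gives 10-point 4-parameter IC50 curves normalized to no-enzyme and DMSO controls. Lipid substrate was PIP2diC8 or Soy PI at 50 uM, with 20 uM ATP. WT or H1047R p110α/p85α complex (1-5 nM) was preincubated 1 h with compound.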

[3] = target: T2, human full length PIK3KA Wild-type (p110α/p85α complex) (Homo sapiens, UniProt P42336); test: PI3K-Alpha Kinase (PIK3CA) biochemical activity, wild-type (ADP-Glo); details: 20 uM ATP
T2 construct: Recombinant, catalytically active human full length PIK3KA Wild-type and H1047R mutant were purchased; 6xHis (N); purchased EMD Millipore Sigma 14-602M
Procedure, shortened: as §1

[4] = read-out: PI3K-α (PIK3CA) in vitro cell based assay IC50, 0% FBS, 3 hours treatment
[5] = 0% FBS, 3 hours treatment, read-out: PI3K-α (PIK3CA) in vitro cell based assay IC50

Chain of PI3K-α (PIK3CA) in MDA-MB-453 cells (P42336 whole entry): as the sequence (P42336 whole entry H1047R) above, with R1047H counted along it
Chain of PI3K-α (PIK3CA) in MDA-MB-453 cells (P27986 2-724, further chain): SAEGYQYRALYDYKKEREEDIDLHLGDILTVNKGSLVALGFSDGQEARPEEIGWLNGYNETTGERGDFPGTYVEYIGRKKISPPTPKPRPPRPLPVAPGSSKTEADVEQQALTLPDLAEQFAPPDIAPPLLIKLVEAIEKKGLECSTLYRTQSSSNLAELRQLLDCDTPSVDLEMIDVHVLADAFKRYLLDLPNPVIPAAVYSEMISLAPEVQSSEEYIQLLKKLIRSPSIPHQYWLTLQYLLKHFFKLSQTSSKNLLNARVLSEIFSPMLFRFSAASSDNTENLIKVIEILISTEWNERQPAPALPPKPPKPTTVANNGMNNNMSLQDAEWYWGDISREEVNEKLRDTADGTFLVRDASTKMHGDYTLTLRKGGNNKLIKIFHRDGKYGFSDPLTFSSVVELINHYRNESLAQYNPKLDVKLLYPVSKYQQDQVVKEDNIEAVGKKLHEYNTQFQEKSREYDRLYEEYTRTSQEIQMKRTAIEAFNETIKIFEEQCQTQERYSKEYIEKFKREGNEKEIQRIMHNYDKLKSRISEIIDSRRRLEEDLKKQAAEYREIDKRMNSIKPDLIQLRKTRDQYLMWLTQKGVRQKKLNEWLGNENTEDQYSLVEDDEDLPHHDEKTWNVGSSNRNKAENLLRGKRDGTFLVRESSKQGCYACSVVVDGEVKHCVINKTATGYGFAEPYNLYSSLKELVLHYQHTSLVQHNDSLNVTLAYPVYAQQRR

Row | Structure (SMILES) | IC50 [1, 4] [nM] | IC50 ([2]; Soy PI lipid substrate) [nM] | IC50 ([3]; Soy PI lipid substrate) [nM] | IC50 [1, 5] [nM] | IC50 ([2]; PIP2diC8 lipid substrate) [nM] | IC50 ([3]; PIP2diC8 lipid substrate) [nM]
1 | Cc1cc(C(C)Nc2ccccc2C(=O)O)c2oc(-c3cnn(-c4ccc(C#N)c(F)c4)c3)cc(=O)c2c1 (single isomer, unassigned) [Example 85, 2-[1-[2-[1-(4-Cyano-3-fluoro-phenyl)pyrazol-4-yl]-6-methyl-4-oxo-chromen-8-yl]ethylamino]benzoic acid, Isomer 2,2,2,2-trifluoroacetic acid] | 100 to 500 | < 500 | 1000 to 5000 | – | – | –
2 | COc1ccc(-n2cc(-c3cc(=O)c4cc(C)cc(C(C)Nc5ccccc5C(=O)O)c4o3)cn2)cc1C#N (single isomer, unassigned) [Example 86, 2-[1-[2-[1-(3-Cyano-4-methoxy-phenyl)pyrazol-4-yl]-6-methyl-4-oxo-chromen-8-yl]ethylamino]benzoic acid, Isomer 2,2,2,2-trifluoroacetic acid] | 100 to 500 | < 500 | 1000 to 5000 | – | – | –
3 | Cc1cc(C(C)Nc2ccccc2C(=O)O)c2oc(-c3ccc(C4(C#N)CC4)nc3)c(C)c(=O)c2c1 (single isomer, unassigned) [Example 89, 2-[1-[2-[6-(1-Cyanocyclopropyl)-3-pyridyl]-3,6-dimethyl-4-oxo-chromen-8-yl]ethylamino]benzoic acid, Isomer 1,2,2,2-trifluoroacetic acid] | < 50 | < 500 | 1000 to 5000 | – | – | –
4 | Cc1cc(C(C)Nc2ccc(Cl)nc2C(=O)O)c2oc(-c3ccccn3)c(C)c(=O)c2c1 (single isomer, unassigned) [Example 121, 6-Chloro-3-[1-[3,6-dimethyl-4-oxo-2-(2-pyridyl)chromen-8-yl]ethylamino]pyridine-2-carboxylic acid, Isomer 1,2,2,2-trifluoroacetic acid] | < 50 | < 500 | 1000 to 5000 | – | – | –
5 | Cc1cc(C(C)Nc2ccccc2C(=O)O)c2oc(-c3cn(-c4ccc(C#N)cc4)nn3)cc(=O)c2c1 (single isomer, unassigned) [Example 124, 2-[1-[2-[1-(4-Cyanophenyl)triazol-4-yl]-6-methyl-4-oxo-chromen-8-yl]ethylamino]benzoic acid, Isomer 2,2,2,2-trifluoroacetic acid] | 50 to 100 | < 500 | 1000 to 5000 | – | – | –
6 | Cc1cc(C(C)Nc2ccccc2C(=O)O)c2oc(-c3cncc(C#N)c3)c(C)c(=O)c2c1 (single isomer, unassigned) [Example 125, 2-[1-[2-(5-Cyano-3-pyridyl)-3,6-dimethyl-4-oxo-chromen-8-yl]ethylamino]benzoic acid, Isomer 1,2,2,2-trifluoroacetic acid] | < 50 | < 500 | 500 to 1000 | – | – | –
7 | Cc1cc(C(C)Nc2ccccc2C(=O)O)c2oc(-c3cnc(-c4ccccc4)s3)c(C)c(=O)c2c1 (single isomer, unassigned) [Example 126, 2-[1-[3,6-Dimethyl-4-oxo-2-(2-phenylthiazol-5-yl)chromen-8-yl]ethylamino]benzoic acid, Isomer 1,2,2,2-trifluoroacetic acid] | 50 to 100 | < 500 | < 500 | – | – | –
8 | Cc1cc(C(C)Nc2ccccc2C(=O)O)c2oc(-c3cncc(-n4cccn4)c3)c(C)c(=O)c2c1 (single isomer, unassigned) [Example 127, 2-[1-[3,6-Dimethyl-4-oxo-2-(5-pyrazol-1-yl-3-pyridyl)chromen-8-yl]ethylamino]benzoic acid, Isomer 1,2,2,2-trifluoroacetic acid] | < 50 | < 500 | 1000 to 5000 | – | – | –
9 | COc1ccc(-c2cc(=O)c3cc(C)cc(C(C)Nc4ccccc4C(=O)O)c3o2)cn1 (single isomer, unassigned; isomer 1) [Example 19, 2-[1-[2-(6-Methoxy-3-pyridyl)-6-methyl-4-oxo-chromen-8-yl]ethylamino]benzoic acid, Isomer 1] | – | 5000 to 10000 | > 10000 | > 500 | – | –
10 | COc1cccc(-c2cc(=O)c3cc(C)cc(C(C)Nc4ccccc4C(=O)O)c3o2)n1 (single isomer, unassigned; isomer 1) [Example 21, 2-[1-[2-(6-Methoxy-2-pyridyl)-6-methyl-4-oxo-chromen-8-yl]ethylamino]benzoic acid, Isomer 1] | – | 5000 to 10000 | > 10000 | > 500 | – | –
11 | Cc1cc(C(C)Nc2ccccc2C(=O)O)c2oc(-c3ccccn3)c(C)c(=O)c2c1 (single isomer, unassigned; isomer 1) [Example 24, 2-[1-[3,6-Dimethyl-4-oxo-2-(2-pyridyl)chromen-8-yl]ethylamino]benzoic acid, Isomer 1] | – | < 500 | 1000 to 5000 | < 50 | – | –
12 | Cc1cc(C(C)Nc2ccccc2C(=O)O)c2oc(-c3cccnc3)c(C)c(=O)c2c1 (single isomer, unassigned; isomer 1) [Example 25, 2-[1-[3,6-Dimethyl-4-oxo-2-(3-pyridyl)chromen-8-yl]ethylamino]benzoic acid, Isomer 1] | – | < 500 | 500 to 1000 | < 50 | – | –
13 | Cc1cc(C(C)Nc2ccccc2C(=O)O)c2oc(-c3ccc(OC(C)C)nc3)cc(=O)c2c1 (single isomer, unassigned; isomer 1) [Example 30, 2-[1-[2-(6-Isopropoxy-3-pyridyl)-6-methyl-4-oxo-chromen-8-yl]ethylamino]benzoic acid, Isomer 1] | – | – | – | > 500 | 5000 to 10000 | > 10000
14 | Cc1cc(C(C)Nc2ccccc2C(=O)O)c2oc(-c3ccc(F)nc3)cc(=O)c2c1 (single isomer, unassigned; isomer 1) [Example 35, 2-[1-[2-(6-Fluoro-3-pyridyl)-6-methyl-4-oxo-chromen-8-yl]ethylamino]benzoic acid, Isomer 1] | – | > 10000 | > 10000 | > 500 | – | –
15 | Cc1cc(C(C)Nc2ccccc2C(=O)O)c2oc(-c3ccc(C(F)(F)F)nc3)cc(=O)c2c1 (single isomer, unassigned; isomer 1) [Example 37, 2-[1-[6-Methyl-4-oxo-2-[6-(trifluoromethyl)-3-pyridyl]chromen-8-yl]ethylamino]benzoic acid, Isomer 1] | – | > 10000 | > 10000 | > 500 | – | –
16 | Cc1cc(C(C)Nc2ccccc2C(=O)O)c2oc(-c3ccc(S(C)(=O)=O)nc3)cc(=O)c2c1 (single isomer, unassigned; isomer 1) [Example 39, 2-[1-[6-Methyl-2-(6-methylsulfonyl-3-pyridyl)-4-oxo-chromen-8-yl]ethylamino]benzoic acid, Isomer 1] | – | > 10000 | > 10000 | > 500 | – | –
